From ChEMBL document CHEMBL1134435, “Synthesis of novel sialylmimetics as biological probes” (Bioorg Med Chem Lett, 2001) come the findings set out here.

For assay [1], the system named is Rotavirus. In words: Inhibitory concentration against NCDV (bovine) strain of rotavirus. The assay is classed as functional, organism-based.
Assay [2] has as its system Rotavirus. In words: Inhibitory concentration against Wa (human) strain of rotavirus. The assay is classed as functional, organism-based.
The target of assay [3] is T1, E-selectin (Homo sapiens, UniProt P16581).
T1 sequence (P16581 whole entry): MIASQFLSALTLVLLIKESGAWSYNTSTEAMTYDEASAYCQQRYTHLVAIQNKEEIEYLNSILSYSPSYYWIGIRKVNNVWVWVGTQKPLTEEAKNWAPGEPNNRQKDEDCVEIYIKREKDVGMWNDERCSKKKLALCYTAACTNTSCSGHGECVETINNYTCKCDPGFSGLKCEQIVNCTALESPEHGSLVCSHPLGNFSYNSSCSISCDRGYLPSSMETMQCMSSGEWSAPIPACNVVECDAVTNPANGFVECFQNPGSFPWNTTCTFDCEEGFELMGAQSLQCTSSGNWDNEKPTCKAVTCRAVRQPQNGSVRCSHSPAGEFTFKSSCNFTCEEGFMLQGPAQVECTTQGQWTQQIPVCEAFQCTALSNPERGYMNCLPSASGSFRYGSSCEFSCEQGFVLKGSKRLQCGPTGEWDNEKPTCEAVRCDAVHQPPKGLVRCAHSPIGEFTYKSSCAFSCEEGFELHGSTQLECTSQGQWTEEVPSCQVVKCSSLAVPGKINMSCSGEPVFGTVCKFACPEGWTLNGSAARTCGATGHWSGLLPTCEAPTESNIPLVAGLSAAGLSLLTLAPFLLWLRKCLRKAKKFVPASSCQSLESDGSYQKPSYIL
In words: Inhibitory concentration against E-selectin.

For the compound `COC1OC(CSC(C)C(=O)O)C(O)C(O)C1O` (centres undefined), the IC50 in assay [1] and in assay [2] was > 25000 µM each time.
For the compound `C[C@@H]1O[C@@H](O[C@@H]2CCCC[C@H]2O[C@@H]2O[C@@H](CO)[C@H](O)[C@H](OCC(=O)O)[C@@H]2O)[C@@H](O)[C@@H](O)[C@@H]1O`, the IC50 in assay [3] came out at 500 µM.
On the same count and under the same terms, in the case of `CC(=O)N[C@H]1[C@H]([C@H](O)[C@H](O)CO)O[C@@](O[C@H]2[C@@H](O)[C@@H](CO)O[C@@H](O[C@@H]([C@H](O[C@@H]3O[C@@H](C)[C@@H](O)[C@@H](O)[C@@H]3O)[C@H](C=O)NC(C)=O)[C@H](O)CO)[C@@H]2O)(C(=O)O)C[C@@H]1O` [SIALYL LEWIS X] it was 700 µM.
